Results published in patent US12678419B2, “Compounds” (Sitryx Therapeutics Limited, priority 2020, dated 2026).

Key:
[1] = tested on: IL-1β cytokine output from THP-1s; assay: THP-1 AlphaLISA IL-1β cytokine assay; format: cell-based
Protocol: The cytokine inhibition profiles of compounds of formula (I) were determined in a differentiated THP-1 cell assay. All assays were performed in RPMI-1640 growth medium (Gibco), supplemented with 10% fetal bovine serum (FBS; Gibco), 1% penicillin-streptomycin and 1% sodium pyruvate unless specified otherwise. The IL-1β and IL-6 cytokine inhibition assays were each run in a background of differentiated THP-1 cells as described below. All reagents described were from Sigma-Aldrich unless specified otherwise. Compounds were prepared as 10 mM DMSO stocks.
THP-1 cells were expanded as a suspension up to 80% confluence in appropriate growth medium. Cells were harvested, suspended, and treated with an appropriate concentration of phorbol 12-myristate 13-acetate (PMA) over a 72 hr period (37° C./5% CO2).
Following 72 hrs of THP-1 cell incubation, cellular medium was removed and replaced with fresh growth media containing 1% of FBS. Working concentrations of compounds were prepared separately in 10% FBS treated growth medium and pre-incubated with the cells for 30 minutes (37° C./5% CO2). Following the 30 minute compound pre-incubation, THP-1s were treated with an appropriate concentration of LPS and the THP-1s were subsequently incubated for a 24 hr period (37° C./5% CO2). An appropriate final concentration of Nigericin was then dispensed into the THP-1 plates and incubated for 1 hour (37° C./5% CO2) before THP-1 supernatants were harvested and collected in separate polypropylene 96-well holding plates.
Reagents from each of the IL-1β and IL-6 commercial kits (Perkin Elmer) were prepared and run according to the manufacturer's instructions. Subsequently, fluorescence signal detection in a microplate reader was measured (EnVision® Multilabel Reader, Perkin Elmer).
Percentage inhibition was calculated per cytokine by normalising the sample data to the high and low controls used within each plate (+/− LPS respectively). Percentage inhibition was then plotted against compound concentration and the 50% inhibitory concentration (IC50) was determined from the resultant concentration-response curve.

mouse hepatocytes = assay: Hepatocyte stability assay, mouse; format: in vitro ADME; settings: 10 μM compound
From the text: (§1) Defrosted cryo-preserved hepatocytes (viability >70%) were used to determine the metabolic stability of a compound via calculation of intrinsic clearance (Clint; a measure of the removal of a compound from the liver in the absence of blood flow and cell binding). Clearance data are particularly important for in vitro work as they can be used in combination with in vivo data to predict the half-life and oral bioavailability of a drug.
(§2) The metabolic stability in hepatocytes assay involves a time-dependent reaction using both positive and negative controls. The cells were pre-incubated at 37° C. and spiked with test compound (and positive control); samples were taken at pre-determined time intervals were analysed to monitor the change in concentration of the initial drug compound over 60 minutes. A buffer incubation reaction (with no hepatocytes present) acted as a negative control and two cocktail solutions, containing compounds with known high and low clearance values (verapamil/7-hydroxycoumarin and propranolol/diltiazem), acted as positive controls. • 1. The assay was run with a cell concentration of 0.5×10^6 cells/mL in Leibovitz buffer. • 2. All compounds and controls were run in duplicate. • 3. Compound concentration was 10 μM. • 4. All compounds and controls were incubated with both cells and buffer to show turnover was due to hepatic metabolism. • 5. All wells on the incubation plate had 326.7 μL of either cells or buffer added. • 6. Prior to assay, cell and buffer-only incubation plates were preincubated for 10 mins at 37° C. • 7. The assay was initiated by adding compounds, 3.3 μL of 1 mM in 10% DMSO-90% Buffer; final DMSO concentration was 0.1%. • 8. Samples were taken at regular timepoints (0, 5, 10, 20, 40, 60 min) until 60 mins. • 9. Sample volume was 40 μL and was added to 160 μL of crash solvent (acetonitrile with internal standard) and stored on ice. • 10. At the end of the assay, the crash plates were centrifuged at 3500 rpm for 20 mins at 4° C. • 11. 80 μL of clear supernatant was removed and mixed with 80 μL of deionised water before being analysed by LC-MS/MS.
(§3) Raw LC-MS/MS data was exported to, and analysed in, Microsoft Excel for determination of intrinsic clearance. The percentage remaining of a compound was monitored using the peak area of the initial concentration as 100%. Intrinsic clearance and half-life values were calculated using a graph of the natural log of percentage remaining versus the time of reaction in minutes. Half-life (min) and intrinsic clearance (Clint in μL min^−1 10^−6 cells) values were calculated using the gradient of the graph (the elimination rate constant, k) and Equations 1 and 2.

human hepatocytes = assay: Hepatocyte stability assay, human; format: in vitro ADME; settings: 10 μM compound
From the text: as §1, §2, §3

[2] = tested on: NRF2 (nuclear factor erythroid 2-related factor 2); assay: NRF2 +/-GSH activation assay (DiscoverX PathHunter NRF2 translocation kit, U2OS cells); format: cell-based
[3] = differentiated THP-1 cells, Table 2, compounds of formula (XVI)
[4] = differentiated THP-1 cells, LPS then nigericin, Table 1
[5] = Homo sapiens, THP-1, differentiated THP-1 cells, Table 2, compounds of formula (XVI)

IC50 [1, 4] [µM]	Clint (μL min^−1 10^−6 cells) (mouse hepatocytes)	T½ (mouse hepatocytes) [min]	Clint (μL min^−1 10^−6 cells) (human hepatocytes)	T½ (human hepatocytes) [min]	Compound	also measured
34.9	–	–	–	–	C=C(CC(=O)OC1CCc2cc(Br)c(OC)cc21)C(=O)OCC(=O)O (single isomer, unassigned; enantiomer 2) [Example 13, 2-((4-((5-bromo-6-methoxy-2,3-dihydro-1H-inden-1-yl)oxy)-2-methylene-4-oxobutanoyl)oxy)acetic acid (Enantiomer 2)]	–
11.7	61	21	4	428	C=C(CC(=O)OC1CCc2cc(Cl)cc(Cl)c21)C(=O)OCC(=O)O (single isomer, unassigned; enantiomer 2) [Example 9, 2-((4-((5,7-dichloro-2,3-dihydro-1H-inden-1-yl)oxy)-2-methylene-4-oxobutanoyl)oxy)acetic acid (Enantiomer 2)]	EC50 ([2]; +GSH): 20.6 µM; Emax (%) +GSH ([2]; +GSH, normalised to dimethyl fumarate high control): 204%; EC50 ([2]; −GSH): 8.1 µM; Emax (%) −GSH ([2]; −GSH, normalised to dimethyl fumarate high control): 244%

The next lines start with the compound.

Compound	IC50 [1, 4] [µM]	Clint (μL min^−1 10^−6 cells) (mouse hepatocytes)	T½ (mouse hepatocytes) [min]	Clint (μL min^−1 10^−6 cells) (human hepatocytes)	T½ (human hepatocytes) [min]	also measured
C=C(CC(=O)OC1CCCc2cc(C(F)(F)F)ccc21)C(=O)O (single isomer, unassigned; enantiomer 1) [Intermediate 40, 2-methylene-4-oxo-4-((6-(trifluoromethyl)-1,2,3,4-tetrahydronaphthalen-1-yl)oxy)butanoic acid (Enantiomer 1)]	–	–	–	–	–	IC50 [1, 3]: 5.3 µM
C=C(CC(=O)OC1CCc2cc(Cl)cc(Cl)c2C1)C(=O)OCC(=O)O (single isomer, unassigned; enantiomer 2) [Example 11, 2-((4-((6,8-dichloro-1,2,3,4-tetrahydronaphthalen-2-yl)oxy)-2-methylene-4-oxobutanoyl)oxy)acetic acid (Enantiomer 2)]	6.1	311	5	24	62	–
C=C(CC(=O)OC1CCCc2cc(C(F)(F)F)ccc21)C(=O)O (single isomer, unassigned; enantiomer 2) [Intermediate 41, 2-methylene-4-oxo-4-((6-(trifluoromethyl)-1,2,3,4-tetrahydronaphthalen-1-yl)oxy)butanoic acid (Enantiomer 2)]	–	–	–	–	–	IC50 [1, 3]: 31.7 µM
C=C(CC(=O)OCCCCCCCC)C(=O)O [4-octyl itaconate, reference compound]	–	351	4	401	4	–
C=C(CC(=O)OC1CCc2c(Cl)cc(Cl)cc21)C(=O)O (single isomer, unassigned; enantiomer 1) [Intermediate 25, 4-((4,6-dichloro-2,3-dihydro-1H-inden-1-yl)oxy)-2-methylene-4-oxobutanoic acid Enantiomer 1]	–	–	–	–	–	IC50 [1, 5]: 43.2 µM
C=C(CC(=O)OC1CCc2c(Br)cc(F)cc21)C(=O)OCC(=O)O (single isomer, unassigned; enantiomer 2) [Example 16, 2-((4-((4-bromo-6-fluoro-2,3-dihydro-1H-inden-1-yl)oxy)-2-methylene-4-oxobutanoyl)oxy)acetic acid (Enantiomer 2)]	2.6	>460	<3	15	95	–
C=C(CC(=O)OC1CCc2cc(C(F)(F)F)ccc21)C(=O)O (centres unmarked) [Intermediate 37, 2-methylene-4-oxo-4-((5-(trifluoromethyl)-2,3-dihydro-1H-inden-1-yl)oxy)butanoic acid]	–	–	–	–	–	IC50 [1, 5]: 18.3 µM
C=C(CC(=O)OC1CCc2cc(Br)c(OC)cc21)C(=O)OCC(=O)O (single isomer, unassigned; enantiomer 1) [Example 12, 2-((4-((5-bromo-6-methoxy-2,3-dihydro-1H-inden-1-yl)oxy)-2-methylene-4-oxobutanoyl)oxy)acetic acid (Enantiomer 1)]	–	–	–	–	–	IC50 ([1]; Homo sapiens, THP-1, differentiated THP-1 cells, LPS then nigericin, Table 1): 46.4 µM
